The record followed here is patent US20030203888A1, “Chromophores” (priority 2001, published 2003).

Bounds are passed on as bounds.

The target of one data set is avidin (Gallus gallus, UniProt P02701). Briefly: 'Blank' bioconjugation: non-covalent binding of unreactive fluorophore to avidin (gel filtration, UV analysis). Conditions: after PD-10 gel filtration. An excerpt:
(§1) Experiments have been undertaken to determine the level of non-covalent binding of fluorophore to the protein surface (BSA and avidin). ‘Blank’ bioconjugations using mixtures of the unreactive DPCH and DPBC derivatives 2,3-dihydroxy-5-(4-methoxyphenyl)-15-(4-acetomidophenyl)chlorin (higher Rf regioisomer) and 2,3,12,13-tetrahydroxy-5-(4-acetomidophenyl)-15-(4-methoxyphenyl) bacteriochlorin (higher Rf […] stereoisomer) with both BSA and avidin have been carried out and the resultant protein solutions have been purified by gel filtration (PD-10) as described for the reactive probes described earlier. […] For BSA or avidin, 1 unreactive DPCH binds to each protein molecule, whereas DPBC is less than 1 due probably to its increased polarity and non-amphiphilic nature.
(In general: SEC sorts molecules by how far they enter the pores of the column.)

In the next data set the target is BSA (Bos taurus, UniProt P02769). Description: 'Blank' bioconjugation: non-covalent binding of unreactive fluorophore to BSA (gel filtration, UV analysis). As to conditions: after PD-10 gel filtration.
From the text: as §1

Data set [1] can be described thus: Solubility in water of the chloride salts.
Data set [2] deals with Colo 320 cells. Description: Standard photocytotoxicity test (MTT). The class given is cell-based, human. Conditions: 3.6J/cm2 filtered red light, MTT % cell survival. The procedure: Cells are grown to confluence or appropriate density then washed 2 times with PBS (phosphate buffered saline) to eliminate all trace of FBS (fretal bovine serum). Cell density is adjusted to 1.5×10^6 cells/ml in medium without FBS and these are then incubated for 1 hour in the dark (37 degrees C., 5% CO2) with a range of photosensitiser/conjugate concentrations. Post incubation, cells are washed further with medium (without FBS)to eliminate unbound photosensitiser, then resuspended and seeded in 96 wells plates (1×10^5 cells/well) in quadruplate. Plates are then either irradiated (3.6J/cm2 of filtered red light […]) or left in the dark as “dark toxicity controls” for the same period of time (14 minutes).Five microliters (5%/well) of FBS is added after the irradiation/dark period and the plates are returned to the incubator overnight. Twenty to 24 hours after treatment, 10 μl of MTT solution (Sigma Thiazolyl blue, 4.8×10^−4M in PBS)is added per well and the plates are returned to the incubator until color develops (between 1 and 4 hours). A solution of acid-alcohol (100 μl/well of 0.04N HCL in isopropanol) is the added and mixed thoroughly to dissolve the dark blue crystals. Plates are then read at 570 nm in a microplate reader and the % cell survival calculated against controls. […]

Data set [3] relates to Colo 320 cells. Briefly: FACS conjugate binding analysis. The class given is cell-based, human. As to conditions: FITC detection, 3 repeats. The procedure: Wash flask of cells with phosphate buffered saline (PBS) pH 7.3. Treat with 5 mM EDTA in PBS for 10 min at 37C. Tap flask to dislodge cells, place in 50 mL polypropylene tube and pellet at 400 g 3 min. Resuspend in 10 mL PBS and count cells. Place 2×10^5 in FACS tube (Falcon 2054) and wash with 1 mL PBS by centrifugation (400 g 3 min) and resuspension by agitation
Block cells in 500 μL 2% Marvel milk powder in PBS, 1% BSA 30 min RT
Wash cells in 1 mL PBS/BSA/Azide centifuge and resuspend pellet (as above)
Add 10 μL appropriate antibody dilution. Incubate on ice 1 h
Add 50 μL Rabbit anti-mouse:FITC (Serotec, 1/100 dilution) and incubate on ice in the dark 1 h
Wash cells in 1 mL PBS/BSA/Azide centiflige (as above) and resuspend pellet in 400 μL PBS/BSA/Azide.
Run samples through FACS machine using CellQuest acquisition software to collect data.
FACS analyses were run in accordance with Methodology Description 5.

Chain of avidin (P02701 25-152, species assumed): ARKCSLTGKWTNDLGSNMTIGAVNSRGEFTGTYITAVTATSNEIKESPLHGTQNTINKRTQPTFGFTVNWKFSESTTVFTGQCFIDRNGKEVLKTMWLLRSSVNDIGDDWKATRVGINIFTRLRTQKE
Chain of BSA (P02769 25-607): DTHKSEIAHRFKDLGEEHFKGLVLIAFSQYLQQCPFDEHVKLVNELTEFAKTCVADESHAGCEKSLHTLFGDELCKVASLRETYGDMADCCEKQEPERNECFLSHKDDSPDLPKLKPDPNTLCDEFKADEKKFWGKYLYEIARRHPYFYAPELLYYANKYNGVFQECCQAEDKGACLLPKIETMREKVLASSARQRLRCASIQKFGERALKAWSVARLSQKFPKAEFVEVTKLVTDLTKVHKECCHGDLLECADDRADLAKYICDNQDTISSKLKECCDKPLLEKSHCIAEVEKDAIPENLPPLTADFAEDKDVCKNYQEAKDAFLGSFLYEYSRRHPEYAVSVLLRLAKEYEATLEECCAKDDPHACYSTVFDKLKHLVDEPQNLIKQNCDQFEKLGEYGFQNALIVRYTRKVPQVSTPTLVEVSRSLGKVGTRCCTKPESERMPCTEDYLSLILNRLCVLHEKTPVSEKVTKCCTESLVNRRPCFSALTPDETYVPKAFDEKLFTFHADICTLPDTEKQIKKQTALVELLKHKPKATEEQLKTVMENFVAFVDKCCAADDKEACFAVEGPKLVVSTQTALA

Turning to `COc1ccc(-c2c3nc(cc4ccc([nH]4)c(-c4ccc(NC(C)=O)cc4)c4nc(cc5ccc2[nH]5)C=C4)C(O)C3O)cc1` (stereo not shown) [Example 10, 17,18-Dihydroxy-5-(4-acetamidophenyl)-15-(4-methoxyphenyl)chlorin], the “unreactive fluorophore molecules non-covalently bound to each protein molecule” value at avidin and at BSA was 1 each time.
The melting point is the temperature, or range, at which the solid turns liquid. Take `Nc1ccc(-c2c3nc(c(-c4cc(O)cc(O)c4)c4ccc([nH]4)c(-c4cc(O)cc(O)c4)c4nc(c(-c5cc(O)cc(O)c5)c5ccc2[nH]5)C=C4)C=C3)cc1` [OH6-NH2, 5-(4-Aminophenyl)-10,15,20-tris(3,5-dihydroxyphenyl)porphyrin]: the melting point is > 350 °C (dec.).
The same measure, in the same setting: to `Oc1cc(O)cc(-c2c3nc(c(-c4cc(O)cc(O)c4)c4ccc([nH]4)c(-c4cc(O)cc(O)c4)c4nc(c(-c5ccc(N=C=S)cc5)c5ccc2[nH]5)C=C4)C=C3)c1` belongs > 350 °C (dec.).
In the case of “5-(4-Isothiocyanatophenyl)-10,15,20-tris(4-N-methylpyridiniumyl) porphyrin Trichloride [Example 6]”, the solubility in water entry in data set [1] is listed as “water soluble”.
Turning to `S=C=Nc1ccc(-c2c3nc(c(-c4ccncc4)c4ccc([nH]4)c(-c4ccncc4)c4nc(c(-c5ccncc5)c5ccc2[nH]5)C=C4)C=C3)cc1`, the melting point was > 350 °C (dec.).
As for `S=C=Nc1ccc(-c2c3nc(c(-c4cccnc4)c4ccc([nH]4)c(-c4cccnc4)c4nc(c(-c5cccnc5)c5ccc2[nH]5)C=C4)C=C3)cc1`, the melting point is > 350 °C (dec.).
As for `COc1ccc(-c2c3nc(cc4ccc([nH]4)c(-c4ccc(NC(C)=O)cc4)c4nc(cc5ccc2[nH]5)C(O)C4O)C(O)C3O)cc1` (stereo not shown) [Example 12, 7,8,17,18-tetrahydroxy-5-(4-acetamidophenyl)-15-(4-methoxyphenyl)bacteriochlorin], the “unreactive fluorophore molecules non-covalently bound to each protein molecule” value at avidin and on BSA was “less than 1” throughout.

B1: OH6/17.1A: OH6 conjugated with 17.1A monoclonal antibody, MRs of 2.5, 5, 10 and 20 (conjugate, chains of the INN, looked up)
VH: QVQLQQSGAELVRPGTSVKVSCKASGYAFTNYLIEWVKQRPGQGLEWIGVINPGSGGTNYNEKFKGKATLTADKSSSTAYMQLSSLTSDDSAVYFCARDGPWFAYWGQGTLVTVSA
VL: NIVMTQSPKSMSMSVGERVTLTCKASENVVTYVSWYQQKPEQSPKLLIYGASNRYTGVPDRFTGSGSATDFTLTISSVQAEDLADYHCGQGYSYPYTFGGGTKLEIK
modifications: conjugated to OH6
As for B1, in the data set on Colo 320 cells [2], the photocytotoxicity following irradiation entry was “significant increase in cytotoxicity on irradiation”. The “binding to Colo 320 cells” value with Colo 320 cells [3] is on record as “has bound to the cells”.

B2: PYR/17.1A: PYR conjugated with 17.1A monoclonal antibody (conjugate, chains of the INN, looked up)
VH: B1 VH
VL: B1 VL
modifications: conjugated to PYR
notes: PYR conjugated with 17.1A monoclonal antibody
Turning to B2, in the data set with Colo 320 cells [2], the photocytotoxicity following irradiation entry is on record as “significant increase in cytotoxicity on irradiation”. Further, the “binding to Colo 320 cells” value in the data set on Colo 320 cells [3] is “has bound to the cells”.
